Laboratory results taken from US7601674B2, “α-oxygenated or α-thiolated carboxylic acid phenethylamide derivatives” (priority 2001, dated 2009).

Experiments:
Format in all cases: in vivo
[1] = system: Phytophthora; test: D-2a Action against Phytophthora on tomato plants, residual-protective action; details: test D-2a residual-protective, untreated plants attack 80-100%, read-out: inhibition of fungal infestation
Protocol: (§1) D-2: Action Against Phytophthora on Tomato Plants
(§2) a) Residual-protective Action
(§3) After a cultivation period of 3 weeks, tomato plants are sprayed with a spray mixture (0.02% active ingredient) prepared from a wettable powder formulation of the test compound. After 48 hours, the treated plants are infected with a sporangia suspension of the fungus. Fungus infestation is evaluated after incubation of the infected plants for 5 days at 90-100% relative humidity and +20° C.

[2] = system: Plasmopara viticola; test: D-1b Action against Plasmopara viticola on vines, residual-curative action; details: vine seedlings, test D-1b residual-curative, untreated plants attack 80-100%, read-out: inhibition of fungal infestation
Protocol: (§4) D-1: Action Against Plasmopara viticola on Vines
b) Residual-curative Action
Vine seedlings are infected at the 4- to 5-leaf stage with a sporangia suspension of the fungus. After incubation for 24 hours in a humidity chamber at 95-100% relative humidity and […], the infected plants are dried and sprayed with a spray mixture (0.02% active ingredient) prepared from a wettable powder formulation of the test compound. After the spray coating has dried, the treated plants are placed in the humidity chamber again. Fungus infestation is evaluated 6 days after infection.

[3] = system: Plasmopara viticola; test: D-1a Action against Plasmopara viticola on vines, residual-protective action; details: vine seedlings, test D-1a residual-protective, untreated plants attack 80-100%, read-out: inhibition of fungal infestation
Protocol: as §4, §2
Vine seedlings are sprayed at the 4- to 5-leaf stage with a spray mixture (0.02% active ingredient) prepared from a wettable powder formulation of the test compound. After 24 hours, the treated plants are infected with a sporangia suspension of the fungus. Fungus infestation is evaluated after incubation for 6 days at 95-100% relative humidity and +20° C.

[4] = system: Phytophthora; test: D-2b Action against Phytophthora on tomato plants, systemic action; details: test D-2b systemic (soil drench), untreated plants attack 80-100%, read-out: inhibition of fungal infestation
Protocol: as §1
as §3, with “watered” for “sprayed”, “ingredient based on the volume of the soil)” for “ingredient)”, “compound. […]” for “compound.”, “96” for “48”, “4” for “5”

[5] = system: Phytophthora; test: D-3a Action against Phytophthora on potato plants, residual-protective action; details: potato plants (Bintje), test D-3a residual-protective, untreated plants attack 80-100%, read-out: inhibition of fungal infestation
Protocol: (§5) D-3: Action Against Phytophthora on Potato Plants
as §2
(§6) 2-3 week old potato plants (Bintje variety) are sprayed with a spray mixture (0.02% active ingredient) prepared from a wettable powder formulation of the test compound. After 48 hours, the treated plants are infected with a sporangia suspension of the fungus. Fungus infestation is evaluated after incubation of the infected plants for 4 days at 90-100% relative humidity and +20° C.

[6] = system: Phytophthora; test: D-3b Action against Phytophthora on potato plants, systemic action; details: potato plants (Bintje), test D-3b systemic (soil drench), untreated plants attack 80-100%, read-out: inhibition of fungal infestation
Protocol: as §5
as §6, with “watered” for “sprayed”, “ingredient based on the volume of the soil)” for “ingredient)”, “compound. […]” for “compound.”, “C. Fungal infestation is effectively controlled with compounds of Tables 1 to 64.” for “C.”

Measured: inhibition at 200 ppm

C#CCOc1ccc(CCNC(=O)C(O)COc2ccc(Cl)cc2)cc1OC (stereo not shown) [Compound E1.24, 3-(4-Chloro-phenoxy)-2-hydroxy-N-[2-(3-methoxy-4-prop-2-ynyloxy-phenyl)-ethyl]-propionamide]
80 to 100%: [1] | [2] | [3] | [4]

C#CCOc1ccc(CCNC(=O)C(COc2ccc(Cl)cc2)OCC#C)cc1OC (stereo not shown) [Compound E1.26]
80 to 100%: all assays above
